# In PubChem BioAssay (NCI):
#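 Dose response: 5 concentrations. Exposure: 48 h. Format: 96-well plates. Endpoint: linear interpolation; highest concentration if not reached. Here, GI50 denotes the concentration required for 50% inhibition of growth. TGI is the concentration that stops growth completely.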
# What was measured:
# Assay in all cases: growth of human tumour cells (NCI), 48 h
# OVCAR-4 ovarian = tested on: OVCAR-4 ovarian
# SF-539 CNS = tested on: SF-539 CNS
# OVCAR-3 ovarian = tested on: OVCAR-3 ovarian
# RPMI-8226 leukemia = tested on: RPMI-8226 leukemia
# NCI-H522 lung = tested on: NCI-H522 lung
# HT29 colon = tested on: HT29 colon
# IGROV1 ovarian = tested on: IGROV1 ovarian
# HCT-15 colon = tested on: HCT-15 colon
# TK-10 renal = tested on: TK-10 renal
# COLO 205 colon = tested on: COLO 205 colon
# LOX IMVI melanoma = tested on: LOX IMVI melanoma
# U251 CNS = tested on: U251 CNS
# MOLT-4 leukemia = tested on: MOLT-4 leukemia
# SF-268 CNS = tested on: SF-268 CNS
# ACHN renal = tested on: ACHN renal
# SW-620 colon = tested on: SW-620 colon
# HOP-92 NSCLC = tested on: HOP-92 NSCLC
# CAKI-1 renal = tested on: CAKI-1 renal
# XF 498 CNS = tested on: XF 498 CNS
# SF-295 CNS = tested on: SF-295 CNS
# LXFL 529 NSCLC = tested on: LXFL 529 NSCLC
# 786-0 renal = tested on: 786-0 renal
# SN12C renal = tested on: SN12C renal
# NCI-H226 lung = tested on: NCI-H226 lung
# RXF-631 renal = tested on: RXF-631 renal
# A549 NSCLC = tested on: A549 NSCLC
# HOP-62 NSCLC = tested on: HOP-62 NSCLC
# SK-MEL-5 melanoma = tested on: SK-MEL-5 melanoma
# OVCAR-5 ovarian = tested on: OVCAR-5 ovarian
# NCI-H23 lung = tested on: NCI-H23 lung
# HL-60(TB) leukemia = tested on: HL-60(TB) leukemia
# DMS 273 small cell lung = tested on: DMS 273 small cell lung
# SNB-75 CNS = tested on: SNB-75 CNS
# UO-31 renal = tested on: UO-31 renal
# SK-MEL-2 melanoma = tested on: SK-MEL-2 melanoma
# K-562 leukemia = tested on: K-562 leukemia
# M14 melanoma = tested on: M14 melanoma
# CCRF-CEM leukemia = tested on: CCRF-CEM leukemia
# SK-OV-3 ovarian = tested on: SK-OV-3 ovarian
# UACC-62 melanoma = tested on: UACC-62 melanoma
# SNB-19 CNS = tested on: SNB-19 CNS
# SNB-78 CNS = tested on: SNB-78 CNS
# HCT-116 colon = tested on: HCT-116 colon
# UACC-257 melanoma = tested on: UACC-257 melanoma
# RXF 393 renal = tested on: RXF 393 renal
# NCI-H460 lung = tested on: NCI-H460 lung
# OVCAR-8 ovarian = tested on: OVCAR-8 ovarian
# A498 renal = tested on: A498 renal
# EKVX NSCLC = tested on: EKVX NSCLC
# KM12 colon = tested on: KM12 colon
# KM20L2 colon = tested on: KM20L2 colon
# SK-MEL-28 melanoma = tested on: SK-MEL-28 melanoma
# SR leukemia = tested on: SR leukemia
# M19-MEL melanoma = tested on: M19-MEL melanoma
# DLD-1 colon = tested on: DLD-1 colon
# HCC-2998 colon = tested on: HCC-2998 colon
# MALME-3M melanoma = tested on: MALME-3M melanoma
structure (smiles),measurement,setting,value
CCCCCCCCCCCc1noc2c1C(=O)C(O)CC2 (configuration not stated),TGI,OVCAR-4 ovarian,33 µM
same,TGI,SF-539 CNS,54.7 µM
same,TGI,OVCAR-3 ovarian,34.3 µM
same,TGI,RPMI-8226 leukemia,67.7 µM
same,TGI,NCI-H522 lung,40 µM
same,TGI,HT29 colon,33.2 µM
same,TGI,IGROV1 ovarian,> 100 µM
same,TGI,HCT-15 colon,43.7 µM
same,TGI,TK-10 renal,> 100 µM
same,TGI,COLO 205 colon,83 µM
same,TGI,LOX IMVI melanoma,34.4 µM
same,TGI,U251 CNS,28.3 µM
same,TGI,MOLT-4 leukemia,65.7 µM
same,TGI,SF-268 CNS,> 100 µM
same,TGI,ACHN renal,> 100 µM
same,TGI,SW-620 colon,35.6 µM
same,TGI,HOP-92 NSCLC,42.8 µM
same,TGI,CAKI-1 renal,> 100 µM
same,TGI,XF 498 CNS,27 µM
same,TGI,SF-295 CNS,39.6 µM
same,TGI,LXFL 529 NSCLC,33.1 µM
same,TGI,786-0 renal,34.1 µM
same,TGI,SN12C renal,30.4 µM
same,TGI,NCI-H226 lung,35.9 µM
same,TGI,RXF-631 renal,36.7 µM
same,TGI,A549 NSCLC,55 µM
same,TGI,HOP-62 NSCLC,> 100 µM
same,TGI,SK-MEL-5 melanoma,30.2 µM
same,TGI,OVCAR-5 ovarian,42.6 µM
same,TGI,NCI-H23 lung,31.9 µM
same,TGI,HL-60(TB) leukemia,65.5 µM
same,TGI,DMS 273 small cell lung,30.4 µM
same,TGI,SNB-75 CNS,84.5 µM
same,TGI,UO-31 renal,71.2 µM
same,TGI,SK-MEL-2 melanoma,38.7 µM
same,TGI,K-562 leukemia,42.8 µM
same,TGI,M14 melanoma,94.6 µM
same,TGI,CCRF-CEM leukemia,64.9 µM
same,TGI,SK-OV-3 ovarian,94.8 µM
same,TGI,UACC-62 melanoma,33.8 µM
same,TGI,SNB-19 CNS,67.2 µM
same,TGI,SNB-78 CNS,65.1 µM
same,TGI,HCT-116 colon,41.6 µM
same,TGI,UACC-257 melanoma,42.3 µM
same,TGI,RXF 393 renal,27.5 µM
same,TGI,NCI-H460 lung,37.7 µM
same,TGI,OVCAR-8 ovarian,35.8 µM
same,TGI,A498 renal,88.5 µM
same,TGI,EKVX NSCLC,> 100 µM
same,TGI,KM12 colon,57.1 µM
same,TGI,KM20L2 colon,31.8 µM
same,TGI,SK-MEL-28 melanoma,75.2 µM
same,TGI,SR leukemia,78 µM
CC(=O)CC(=O)Nc1c(C)[c]([Hg][O]C(C)=O)c(C)[c]([Hg][O]C(C)=O)[c]1[Hg][O]C(C)=O,GI50,OVCAR-4 ovarian,15.6 µM
same,TGI,OVCAR-4 ovarian,30.6 µM
same,GI50,SF-539 CNS,18.1 µM
same,TGI,SF-539 CNS,37.1 µM
same,GI50,OVCAR-3 ovarian,12.8 µM
same,TGI,OVCAR-3 ovarian,25.5 µM
same,GI50,M19-MEL melanoma,15.4 µM
same,TGI,M19-MEL melanoma,36.5 µM
same,GI50,NCI-H522 lung,10.4 µM
same,TGI,NCI-H522 lung,35.8 µM
same,GI50,DLD-1 colon,13.6 µM
same,TGI,DLD-1 colon,51.1 µM
same,GI50,HT29 colon,12.2 µM
same,TGI,HT29 colon,30.5 µM
same,GI50,IGROV1 ovarian,15.4 µM
same,TGI,IGROV1 ovarian,40.7 µM
same,GI50,HCT-15 colon,15.1 µM
same,TGI,HCT-15 colon,35.7 µM
same,GI50,TK-10 renal,13 µM
same,TGI,TK-10 renal,25.7 µM
same,GI50,COLO 205 colon,33.3 µM
same,TGI,COLO 205 colon,> 100 µM
same,GI50,U251 CNS,11.7 µM
same,TGI,U251 CNS,24.6 µM
same,GI50,MOLT-4 leukemia,10.3 µM
same,TGI,MOLT-4 leukemia,> 100 µM
same,GI50,SF-268 CNS,15.4 µM
same,TGI,SF-268 CNS,35.4 µM
same,GI50,ACHN renal,14.2 µM
same,TGI,ACHN renal,27.3 µM
same,GI50,SW-620 colon,10 µM
same,TGI,SW-620 colon,27.4 µM
same,GI50,CAKI-1 renal,18.6 µM
same,TGI,CAKI-1 renal,32.6 µM
same,GI50,XF 498 CNS,4.38 µM
same,TGI,XF 498 CNS,15.6 µM
same,GI50,SF-295 CNS,18.5 µM
same,TGI,SF-295 CNS,36.2 µM
same,GI50,LXFL 529 NSCLC,6.54 µM
same,TGI,LXFL 529 NSCLC,20.7 µM
same,GI50,786-0 renal,10.9 µM
same,TGI,786-0 renal,24.4 µM
same,GI50,SN12C renal,17.5 µM
same,TGI,SN12C renal,33.3 µM
same,GI50,NCI-H226 lung,29.4 µM
same,TGI,NCI-H226 lung,56.5 µM
same,GI50,RXF-631 renal,2.39 µM
same,TGI,RXF-631 renal,7.75 µM
same,GI50,A549 NSCLC,17.1 µM
same,TGI,A549 NSCLC,34.2 µM
same,GI50,HOP-62 NSCLC,20.8 µM
same,TGI,HOP-62 NSCLC,36.4 µM
same,GI50,SK-MEL-5 melanoma,2.99 µM
same,TGI,SK-MEL-5 melanoma,11.3 µM
same,GI50,OVCAR-5 ovarian,28.9 µM
same,TGI,OVCAR-5 ovarian,71.8 µM
same,GI50,NCI-H23 lung,10.6 µM
same,TGI,NCI-H23 lung,24.5 µM
same,GI50,HCC-2998 colon,17.6 µM
same,TGI,HCC-2998 colon,32.6 µM
same,GI50,DMS 273 small cell lung,18.4 µM
same,TGI,DMS 273 small cell lung,50.4 µM
same,GI50,SNB-75 CNS,12.9 µM
same,TGI,SNB-75 CNS,25.9 µM
same,GI50,UO-31 renal,22.4 µM
same,TGI,UO-31 renal,40 µM
same,GI50,SK-MEL-2 melanoma,16.1 µM
same,TGI,SK-MEL-2 melanoma,31.7 µM
same,GI50,K-562 leukemia,4 µM
same,TGI,K-562 leukemia,> 100 µM
same,GI50,M14 melanoma,12.7 µM
same,TGI,M14 melanoma,29.8 µM
same,GI50,CCRF-CEM leukemia,4.01 µM
same,TGI,CCRF-CEM leukemia,49.5 µM
same,GI50,SK-OV-3 ovarian,20.9 µM
same,TGI,SK-OV-3 ovarian,35.3 µM
same,GI50,UACC-62 melanoma,11.8 µM
same,TGI,UACC-62 melanoma,24.1 µM
same,GI50,SNB-19 CNS,2.47 µM
same,TGI,SNB-19 CNS,6.61 µM
same,GI50,MALME-3M melanoma,6.56 µM
same,TGI,MALME-3M melanoma,20.4 µM
same,GI50,SNB-78 CNS,22.7 µM
same,TGI,SNB-78 CNS,58.4 µM
same,GI50,HCT-116 colon,18.2 µM
same,TGI,HCT-116 colon,41.1 µM
same,GI50,UACC-257 melanoma,14.4 µM
same,TGI,UACC-257 melanoma,28.5 µM
same,GI50,RXF 393 renal,3.44 µM
same,TGI,RXF 393 renal,16.2 µM
same,GI50,OVCAR-8 ovarian,10.9 µM
same,TGI,OVCAR-8 ovarian,24.4 µM
same,GI50,A498 renal,15.3 µM
same,TGI,A498 renal,28.8 µM
same,GI50,EKVX NSCLC,20.6 µM
same,TGI,EKVX NSCLC,41.3 µM
same,GI50,KM12 colon,16.9 µM
same,TGI,KM12 colon,34.8 µM
same,GI50,KM20L2 colon,18.8 µM
same,TGI,KM20L2 colon,48.2 µM
same,GI50,SK-MEL-28 melanoma,12.6 µM
same,TGI,SK-MEL-28 melanoma,26.3 µM
same,GI50,SR leukemia,5.31 µM
same,TGI,SR leukemia,> 100 µM
